Reference: ChEMBL document CHEMBL1201861, “Genomics of Drug Sensitity in Cancer screening data, Wellcome Trust Sanger Institute”

Assays:
[1] = system: U-118-MG; assay: cells; assay type: functional, cell-based; conditions: Homo sapiens
Description: SANGER: Inhibition of human U-118-MG cell growth in a cell viability assay.

[2] = system: KYSE-140; assay: cells; assay type: functional, cell-based; conditions: Homo sapiens;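 further: cell viability assay measuring growth inhibition in human KYSE-140 cells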
Description: SANGER: Inhibition of human KYSE-140 cell growth in a cell viability assay.

[3] = system: NCI-H1436; assay: cells; assay type: functional, cell-based; conditions: Homo sapiens;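 further: growth suppression of human NCI-H1436 cells, determined with a cell viability readout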
Description: SANGER: Inhibition of human NCI-H1436 cell growth in a cell viability assay.

[4] = system: NCCIT; assay: SANGER: Inhibition of human NCCIT cell growth in a cell viability assay.; assay type: functional, cell-based
[5] = system: HuP-T4; assay: cells; assay type: functional, cell-based; conditions: Homo sapiens;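 further: cell viability assay measuring how much HuP-T4 cell growth is inhibited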
Description: SANGER: Inhibition of human HuP-T4 cell growth in a cell viability assay.

[6] = system: KYSE-70 cell line; assay: cells; assay type: functional, cell-based; conditions: Homo sapiens;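 further: cell viability assay read-out, with IC50 expressing suppression of KYSE-70 cell growth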
Description: SANGER: Inhibition of human KYSE-70 cell growth in a cell viability assay.

[7] = system: Calu-3; assay: cells; assay type: functional, cell-based; conditions: Homo sapiens;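 further: growth inhibition of human Calu-3 cells, determined with a cell viability assay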
Description: SANGER: Inhibition of human Calu-3 cell growth in a cell viability assay.

[8] = system: KU-19-19; assay: cells; assay type: functional, cell-based; conditions: Homo sapiens
Description: SANGER: Inhibition of human KU-19-19 cell growth in a cell viability assay.

[9] = system: CHP-212; assay: cells; assay type: functional, cell-based; conditions: Homo sapiens
Description: SANGER: Inhibition of human CHP-212 cell growth in a cell viability assay.

[10] = system: OE33; assay: cells; assay type: functional, cell-based; conditions: Homo sapiens;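 further: growth inhibition of human OE33 cells, measured by a cell viability assay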
Description: SANGER: Inhibition of human OE33 cell growth in a cell viability assay.

[11] = system: IGR-1; assay: cells; assay type: functional, cell-based; conditions: Homo sapiens;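 further: growth inhibition of human IGR-1 cells, read out with a cell viability assay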
Description: SANGER: Inhibition of human IGR-1 cell growth in a cell viability assay.

[12] = system: SJRH30; assay: cells; assay type: functional, cell-based; conditions: Homo sapiens;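 further: growth inhibition of human SJRH30 cells, read out with a cell viability assay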
Description: SANGER: Inhibition of human SJRH30 cell growth in a cell viability assay.

[13] = system: NCI-H661; assay: cells; assay type: functional, cell-based; conditions: Homo sapiens;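 further: cell viability assay read-out, IC50 being the concentration that inhibits growth of the cells by half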
Description: SANGER: Inhibition of human NCI-H661 cell growth in a cell viability assay.

[14] = system: COLO-741; assay: cells; assay type: functional, cell-based; conditions: Homo sapiens
Description: SANGER: Inhibition of human COLO-741 cell growth in a cell viability assay.

[15] = system: HCC 2998; assay: cells; assay type: functional, cell-based; conditions: Homo sapiens;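 further: growth inhibition of human HCC2998 cells, measured with a cell viability read-out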
Description: SANGER: Inhibition of human HCC2998 cell growth in a cell viability assay.

[16] = system: DMS-153; assay: cells; assay type: functional, cell-based; conditions: Homo sapiens
Description: SANGER: Inhibition of human DMS-153 cell growth in a cell viability assay.

[17] = system: NCI-H2030; assay: cells; assay type: functional, cell-based; conditions: Homo sapiens;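 further: growth inhibition of human NCI-H2030 cells, read out by a cell viability assay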
Description: SANGER: Inhibition of human NCI-H2030 cell growth in a cell viability assay.

[18] = system: TUR; assay: cells; assay type: functional, cell-based; conditions: Homo sapiens;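 further: growth inhibition of human TUR cells, read out with a cell viability assay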
Description: SANGER: Inhibition of human TUR cell growth in a cell viability assay.

[19] = system: NCI-H1755; assay: cells; assay type: functional, cell-based; conditions: Homo sapiens;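 further: cell viability readout used to measure growth inhibition of NCI-H1755 cells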
Description: SANGER: Inhibition of human NCI-H1755 cell growth in a cell viability assay.

[20] = system: KYSE-270; assay: cells; assay type: functional, cell-based; conditions: Homo sapiens;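 further: cell growth inhibition measured with a viability assay in the human KYSE-270 line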
Description: SANGER: Inhibition of human KYSE-270 cell growth in a cell viability assay.

[21] = system: HT-29; assay: cells; assay type: functional, cell-based; conditions: Homo sapiens;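 further: growth inhibition of human HT-29 cells, read out by a cell viability assay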
Description: SANGER: Inhibition of human HT-29 cell growth in a cell viability assay.

[22] = system: CAL-51; assay: cells; assay type: functional, cell-based; conditions: Homo sapiens;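 further: human CAL-51 cell line, growth inhibition read out via a cell viability assay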
Description: SANGER: Inhibition of human CAL-51 cell growth in a cell viability assay.

[23] = system: MHH-ES-1; assay: cells; assay type: functional, cell-based; conditions: Homo sapiens
Description: SANGER: Inhibition of human MHH-ES-1 cell growth in a cell viability assay.

[24] = system: PA-1; assay: cells; assay type: functional, cell-based; conditions: Homo sapiens;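 further: IC50 for suppression of PA-1 cell proliferation, determined with a cell viability read-out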
Description: SANGER: Inhibition of human PA-1 cell growth in a cell viability assay.

[25] = system: VMRC-RCZ; assay: cells; assay type: functional, cell-based; conditions: Homo sapiens
Description: SANGER: Inhibition of human VMRC-RCZ cell growth in a cell viability assay.

[26] = system: DMS-273; assay: cells; assay type: functional, cell-based; conditions: Homo sapiens
Description: SANGER: Inhibition of human DMS-273 cell growth in a cell viability assay.

[27] = system: ARH-77; assay: cells; assay type: functional, cell-based; conditions: Homo sapiens;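 further: growth inhibition of ARH-77 cells, read out by a cell viability assay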
Description: SANGER: Inhibition of human ARH-77 cell growth in a cell viability assay.

[28] = system: KARPAS-422; assay: cells; assay type: functional, cell-based; conditions: Homo sapiens
Description: SANGER: Inhibition of human KARPAS-422 cell growth in a cell viability assay.

[29] = system: G-402; assay: cells; assay type: functional, cell-based; conditions: Homo sapiens
Description: SANGER: Inhibition of human G-402 cell growth in a cell viability assay.

[30] = system: SW13; assay: cells; assay type: functional, cell-based; conditions: Homo sapiens;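 further: IC50 is inhibition of SW13 cell growth, read out with a cell viability assay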
Description: SANGER: Inhibition of human SW13 cell growth in a cell viability assay.

[31] = system: NCI-H1522; assay: cells; assay type: functional, cell-based; conditions: Homo sapiens;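 further: growth inhibition of NCI-H1522 cells, read out with a cell viability assay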
Description: SANGER: Inhibition of human NCI-H1522 cell growth in a cell viability assay.

[32] = system: BFTC-905; assay: cells; assay type: functional, cell-based; conditions: Homo sapiens
Description: SANGER: Inhibition of human BFTC-905 cell growth in a cell viability assay.

[33] = system: NCI-H2170; assay: cells; assay type: functional, cell-based; conditions: Homo sapiens;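 further: cell viability assay measuring growth inhibition of human NCI-H2170 cancer cells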
Description: SANGER: Inhibition of human NCI-H2170 cell growth in a cell viability assay.

[34] = system: EB-3; assay: cells; assay type: functional, cell-based; conditions: Homo sapiens;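 further: human EB-3 cells, growth inhibition read out via a cell viability assay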
Description: SANGER: Inhibition of human EB-3 cell growth in a cell viability assay.

[35] = system: JIYOYE; assay: cells; assay type: functional, cell-based; conditions: Homo sapiens
Description: SANGER: Inhibition of human JiyoyeP-2003 cell growth in a cell viability assay.

[36] = system: ACHN; assay: cells; assay type: functional, cell-based; conditions: Homo sapiens;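 further: cell viability read-out used to gauge how strongly growth of human ACHN cells is suppressed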
Description: SANGER: Inhibition of human ACHN cell growth in a cell viability assay.

[37] = system: RMG-I; assay: cells; assay type: functional, cell-based; conditions: Homo sapiens;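 further: growth inhibition of human RMG-I cells, read out with a cell viability assay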
Description: SANGER: Inhibition of human RMG-I cell growth in a cell viability assay.

[38] = system: CPC-N; assay: cells; assay type: functional, cell-based; conditions: Homo sapiens;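 further: growth inhibition of CPC-N cells, with a cell viability assay as the readout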
Description: SANGER: Inhibition of human CPC-N cell growth in a cell viability assay.

[39] = system: CP50-MEL-B; assay: cells; assay type: functional, cell-based; conditions: Homo sapiens;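 further: growth inhibition of the human cell line, measured with a cell viability read-out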
Description: SANGER: Inhibition of human CP50-MEL-B cell growth in a cell viability assay.

[40] = system: K052; assay: cells; assay type: functional, cell-based; conditions: Homo sapiens;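 further: Read-out from a cell viability assay, IC50 reflecting suppression of K052 cell growth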
Description: SANGER: Inhibition of human K052 cell growth in a cell viability assay.

[41] = system: L-540; assay: cells; assay type: functional, cell-based; conditions: Homo sapiens;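 further: growth inhibition of the human L-540 cell line, read out with a viability assay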
Description: SANGER: Inhibition of human L-540 cell growth in a cell viability assay.

[42] = system: NCI-H1963; assay: cells; assay type: functional, cell-based; conditions: Homo sapiens;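 further: cell growth inhibition of the human line, determined with a cell viability assay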
Description: SANGER: Inhibition of human NCI-H1963 cell growth in a cell viability assay.

[43] = system: NCI-H1792; assay: cells; assay type: functional, cell-based; conditions: Homo sapiens;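 further: growth inhibition of human NCI-H1792 cells, read out as cell viability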
Description: SANGER: Inhibition of human NCI-H1792 cell growth in a cell viability assay.

[44] = system: NCI-H2228; assay: cells; assay type: functional, cell-based; conditions: Homo sapiens;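 further: growth inhibition of human NCI-H2228 cells, read out by a cell viability assay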
Description: SANGER: Inhibition of human NCI-H2228 cell growth in a cell viability assay.

[45] = system: KOSC-2; assay: cells; assay type: functional, cell-based; conditions: Homo sapiens;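 further: growth inhibition of KOSC-2 cells, read out by a cell viability assay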
Description: SANGER: Inhibition of human KOSC-2 cell growth in a cell viability assay.

[46] = system: HPAF-II; assay: cells; assay type: functional, cell-based; conditions: Homo sapiens;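 further: growth inhibition of HPAF-II cells, read out with a cell viability assay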
Description: SANGER: Inhibition of human HPAF-II cell growth in a cell viability assay.

[47] = system: UO-31; assay: cells; assay type: functional, cell-based; conditions: Homo sapiens
Description: SANGER: Inhibition of human U031 cell growth in a cell viability assay.

[48] = system: T-24; assay: cells; assay type: functional, cell-based; conditions: Homo sapiens;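 further: growth inhibition of T-24 cells, read out with a cell viability assay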
Description: SANGER: Inhibition of human T-24 cell growth in a cell viability assay.

[49] = system: WSU-NHL; assay: cells; assay type: functional, cell-based; conditions: Homo sapiens;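 further: growth inhibition of human WSU-NHL cells, read out with a cell viability assay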
Description: SANGER: Inhibition of human WSU-NHL cell growth in a cell viability assay.

[50] = system: MKN-7; assay: cells; assay type: functional, cell-based; conditions: Homo sapiens;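 further: growth inhibition of MKN-7 cells, read out with a cell viability assay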
Description: SANGER: Inhibition of human MKN7 cell growth in a cell viability assay.

[51] = system: CAL-12T; assay: cells; assay type: functional, cell-based, Homo sapiens; conditions: Homo sapiens, CAL-12T;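 further: growth inhibition of human CAL-12T cells, read out with a cell viability assay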
Description: SANGER: Inhibition of human CAL-12T cell growth in a cell viability assay.

[52] = system: UMC-11; assay: cells; assay type: functional, cell-based; conditions: Homo sapiens;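 further: growth inhibition of UMC-11 cells, read out with a cell viability assay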
Description: SANGER: Inhibition of human UMC-11 cell growth in a cell viability assay.

[53] = system: HEC-1; assay: cells; assay type: functional, cell-based; conditions: Homo sapiens;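 further: growth inhibition of the cell line, read out with a cell viability assay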
Description: SANGER: Inhibition of human HEC-1 cell growth in a cell viability assay.

[54] = system: UACC-893; assay: cells; assay type: functional, cell-based; conditions: Homo sapiens
Description: SANGER: Inhibition of human UACC-893 cell growth in a cell viability assay.

[55] = system: PANC-03-27; assay: cells; assay type: functional, cell-based; conditions: Homo sapiens
Description: SANGER: Inhibition of human PANC-03-27 cell growth in a cell viability assay.

[56] = system: CAL-54; assay: cells; assay type: functional, cell-based; conditions: Homo sapiens;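 further: growth inhibition of CAL-54 cells, read out by a viability measurement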
Description: SANGER: Inhibition of human CAL-54 cell growth in a cell viability assay.

[57] = system: TCC-SUP; assay: cells; assay type: functional, cell-based; conditions: Homo sapiens;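 further: growth inhibition of TCC-SUP cells, read out with a cell viability assay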
Description: SANGER: Inhibition of human TCCSUP cell growth in a cell viability assay.

[58] = system: COR-L105; assay: cells; assay type: functional, cell-based; conditions: Homo sapiens
Description: SANGER: Inhibition of human COR-L105 cell growth in a cell viability assay.

[59] = system: A673; assay: cells; assay type: functional, cell-based; conditions: Homo sapiens;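 further: growth inhibition of human A673 cells, read out through a cell viability assay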
Description: SANGER: Inhibition of human A673 cell growth in a cell viability assay.

[60] = system: HOS; assay: cells; assay type: functional, cell-based; conditions: Homo sapiens;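 further: growth inhibition of human HOS cells, read out with a cell viability assay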
Description: SANGER: Inhibition of human HOS cell growth in a cell viability assay.

[61] = system: KYSE-150 cell line; assay: cells; assay type: functional, cell-based; conditions: Homo sapiens;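 further: growth inhibition of human KYSE-150 cells, read out with a cell viability assay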
Description: SANGER: Inhibition of human KYSE-150 cell growth in a cell viability assay.

[62] = system: BFTC-909; assay: cells; assay type: functional, cell-based; conditions: Homo sapiens
Description: SANGER: Inhibition of human BFTC-909 cell growth in a cell viability assay.

[63] = system: Huh-7; assay: cells; assay type: functional, cell-based; conditions: Homo sapiens;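 further: HuH-7 cell growth inhibition, read out with a cell viability assay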
Description: SANGER: Inhibition of human HuH-7 cell growth in a cell viability assay.

## Fc1cc(-c2cc[nH]/c(=N/c3ccc(-n4cnc(N5CCOCC5)n4)cc3)n2)cc(N2CCOCC2)c1
[1]
  IC50: > 5120 nM
[2]
  IC50: 1050 nM
[3]
  IC50: 1180 nM
[4]
  IC50: 398 nM
[5]
  IC50: 3260 nM
[6]
  IC50: 627 nM
[7]
  IC50: 824 nM
[8]
  IC50: 5100 nM
[9]
  IC50: 286 nM
[10]
  IC50: 517 nM
[11]
  IC50: 164 nM
[12]
  IC50: 349 nM
[13]
  IC50: 501 nM
[14]
  IC50: > 5120 nM
[15]
  IC50: 2030 nM
[16]
  IC50: 1240 nM
[17]
  IC50: 169 nM
[18]
  IC50: 363 nM
[19]
  IC50: 349 nM
[20]
  IC50: 222 nM
[21]
  IC50: 358 nM
[22]
  IC50: 219 nM
[23]
  IC50: 274 nM
[24]
  IC50: 102 nM
[25]
  IC50: 999 nM
[26]
  IC50: 105 nM
[27]
  IC50: 574 nM
[28]
  IC50: 406 nM
[29]
  IC50: 258 nM
[30]
  IC50: 1380 nM
[31]
  IC50: 889 nM
[32]
  IC50: 141 nM
[33]
  IC50: 745 nM
[34]
  IC50: 1830 nM
[35]
  IC50: 263 nM
[36]
  IC50: 886 nM
[37]
  IC50: 1250 nM
[38]
  IC50: 4220 nM
[39]
  IC50: 722 nM
[40]
  IC50: 508 nM
[41]
  IC50: 677 nM
[42]
  IC50: 873 nM
[43]
  IC50: 2490 nM
[44]
  IC50: 527 nM
[45]
  IC50: 531 nM
[46]
  IC50: 512 nM
[47]
  IC50: 519 nM
[48]
  IC50: 2870 nM
[49]
  IC50: 587 nM
[50]
  IC50: 3140 nM
[51]
  IC50: 2110 nM
[52]
  IC50: 179 nM
[53]
  IC50: 2150 nM
[54]
  IC50: 4990 nM
[55]
  IC50: 271 nM
[56]
  IC50: 1880 nM
[57]
  IC50: > 5120 nM
[58]
  IC50: 235 nM
[59]
  IC50: 1120 nM
[60]
  IC50: 613 nM
[61]
  IC50: 664 nM
[62]
  IC50: 838 nM
[63]
  IC50: 756 nM

## Cc1n[nH]c2ccc(-c3cncc(OC[C@@H](N)Cc4c[nH]c5ccccc45)c3)cc12 [A-443654]
[3]
  IC50: 477 nM
[4]
  IC50: 234 nM
[16]
  IC50: 669 nM
[18]
  IC50: > 1020 nM
[27]
  IC50: 298 nM
[28]
  IC50: 294 nM
[31]
  IC50: 464 nM
[34]
  IC50: 334 nM
[35]
  IC50: 188 nM
[38]
  IC50: 304 nM
[40]
  IC50: > 1020 nM
[41]
  IC50: 346 nM
[42]
  IC50: 392 nM
[49]
  IC50: > 1020 nM

## Cc1nc(Nc2ncc(C(=O)Nc3c(C)cccc3Cl)s2)cc(N2CCN(CCO)CC2)n1 [DASATINIB]
[3]
  IC50: > 1280 nM
[4]
  IC50: > 1280 nM
[16]
  IC50: > 1280 nM
[18]
  IC50: > 1280 nM
[27]
  IC50: > 1280 nM
[28]
  IC50: 340 nM
[31]
  IC50: > 1280 nM
[34]
  IC50: > 1280 nM
[35]
  IC50: > 1280 nM
[38]
  IC50: > 1280 nM
[40]
  IC50: > 1280 nM
[41]
  IC50: > 1280 nM
[42]
  IC50: > 1280 nM
[49]
  IC50: > 1280 nM

## CO[C@@]12[C@H](COC(N)=O)C3=C(C(=O)C(C)=C(N)C3=O)N1C[C@@H]1N[C@@H]12 [MITOMYCIN]
[1]
  IC50: 3140 nM
[2]
  IC50: 381 nM
[3]
  IC50: 1930 nM
[4]
  IC50: 1010 nM
[5]
  IC50: 108 nM
[6]
  IC50: 224 nM
[7]
  IC50: 321 nM
[8]
  IC50: 3360 nM
[9]
  IC50: < 62.5 nM
[10]
  IC50: 338 nM
[11]
  IC50: 322 nM
[12]
  IC50: 1670 nM
[13]
  IC50: 542 nM
[14]
  IC50: 2200 nM
[15]
  IC50: 160 nM
[16]
  IC50: 425 nM
[17]
  IC50: 211 nM
[18]
  IC50: 190 nM
[19]
  IC50: 5440 nM
[20]
  IC50: 103 nM
[21]
  IC50: 36 nM
[22]
  IC50: 30.9 nM
[23]
  IC50: 16.3 nM
[24]
  IC50: 23.5 nM
[25]
  IC50: 199 nM
[26]
  IC50: 161 nM
[27]
  IC50: 243 nM
[28]
  IC50: 907 nM
[29]
  IC50: 85.9 nM
[30]
  IC50: 642 nM
[31]
  IC50: 3240 nM
[32]
  IC50: 92.7 nM
[33]
  IC50: < 62.5 nM
[34]
  IC50: 3200 nM
[35]
  IC50: 630 nM
[36]
  IC50: 72.1 nM
[37]
  IC50: 3460 nM
[38]
  IC50: 381 nM
[39]
  IC50: 780 nM
[40]
  IC50: 149 nM
[41]
  IC50: 95.1 nM
[42]
  IC50: 974 nM
[43]
  IC50: 697 nM
[44]
  IC50: < 62.5 nM
[45]
  IC50: 1530 nM
[46]
  IC50: 1100 nM
[47]
  IC50: 366 nM
[48]
  IC50: 246 nM
[49]
  IC50: 192 nM
[50]
  IC50: > 16000 nM
[51]
  IC50: 491 nM
[52]
  IC50: 567 nM
[53]
  IC50: 698 nM
[54]
  IC50: 418 nM
[55]
  IC50: 167 nM
[56]
  IC50: 1840 nM
[57]
  IC50: 482 nM
[58]
  IC50: 1610 nM
[59]
  IC50: 790 nM
[60]
  IC50: 107 nM
[61]
  IC50: 34.1 nM
[62]
  IC50: 85.3 nM
[63]
  IC50: 3220 nM
